Values quoted from earlier work, collected in US20070032554A1, “Treatment of stuttering and other communication disorders with norepinephrine reuptake inhibitors” (ELILILLY AND COMPANY a Corporation, priority 2003, published 2007).

Settings: for effect on stuttering: literature reports in persons who stutter; for side effects / tolerability: literature reports, treatment of stuttering

Compound | effect on stuttering | side effects / tolerability
O=C(CCCN1CCC(O)(c2ccc(Cl)cc2)CC1)c1ccc(F)cc1 [haloperidol] | reduce the symptoms of stuttering | not well tolerated
CN[C@H]1CC[C@@H](c2ccc(Cl)c(Cl)c2)c2ccccc21 [Sertraline] |  | a number of undesirable side effects
Cc1cc2c(s1)Nc1ccccc1N=C2N1CCN(C)CC1 [Olanzapine] |  | mostly limited to slight weight gain and drowsiness
Fc1ccc([C@@H]2CCNC[C@H]2COc2ccc3c(c2)OCO3)cc1 [Paroxetine] |  | a number of undesirable side effects
Cc1nc2n(c(=O)c1CCN1CCC(c3noc4cc(F)ccc34)CC1)CCCC2 [risperidone] | may be effective | sedation was common
